According to patent US12421269B2, “SGLT2/DPP4 inhibitor and application thereof” (CGeneTech (Suzhou, China) CO., Ltd., priority 2019, dated 2025):

Columns and labels:
Human-SGLT2 = biological target: T1, Human-SGLT2 (Homo sapiens, UniProt P31639); experiment: SGLT2 glucose transport assay ([14C]-labeled glucose uptake); type: cell-based; details: cells stably expressing Human-SGLT2, 37° C., 2 hours
T1 sequence (P31639 1-672): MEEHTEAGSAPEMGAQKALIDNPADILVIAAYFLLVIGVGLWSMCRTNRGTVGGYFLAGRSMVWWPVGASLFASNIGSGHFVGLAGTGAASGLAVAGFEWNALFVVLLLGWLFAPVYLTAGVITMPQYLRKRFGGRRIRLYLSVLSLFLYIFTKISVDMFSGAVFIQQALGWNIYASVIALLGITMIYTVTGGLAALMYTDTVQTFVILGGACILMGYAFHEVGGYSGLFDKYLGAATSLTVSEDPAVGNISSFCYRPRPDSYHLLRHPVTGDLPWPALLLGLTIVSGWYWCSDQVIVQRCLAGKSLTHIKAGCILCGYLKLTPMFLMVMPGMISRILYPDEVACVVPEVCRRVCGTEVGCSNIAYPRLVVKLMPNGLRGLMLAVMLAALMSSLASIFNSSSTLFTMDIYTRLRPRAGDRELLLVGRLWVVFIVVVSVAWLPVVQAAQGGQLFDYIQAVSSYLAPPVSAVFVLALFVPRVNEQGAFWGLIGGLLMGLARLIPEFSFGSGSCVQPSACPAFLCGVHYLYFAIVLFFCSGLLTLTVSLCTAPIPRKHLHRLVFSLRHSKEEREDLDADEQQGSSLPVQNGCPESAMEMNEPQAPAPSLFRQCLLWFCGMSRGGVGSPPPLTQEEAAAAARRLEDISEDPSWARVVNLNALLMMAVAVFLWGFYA
Description: To test the effect of compounds on the glucose transport activity of SGLT2 transporters by measuring the amount of [^14C]-labeled glucose entering highly expressed Human-SGLT2 cells.
The cells stably expressing Human-SGLT2 used for the experiments were constructed by WuXi AppTec Shanghai. SGLT2 cells were plated in 96-well cell culture plates (Greiner) and cultured overnight at 5% CO2, 37° C.
Experimental buffer: 10 mM 4-hydroxyethylpiperazine ethanesulfonic acid (HEPES), 1.2 mM magnesium chloride (MgCl2), 4.7 mM potassium chloride (KCl), 2.2 mM calcium chloride (CaCl2) and 120 mM sodium chloride (NaCl).
Termination buffer: 10 mM 4-hydroxyethylpiperazine ethanesulfonic acid (HEPES), 1.2 mM magnesium chloride (MgCl2), 4.7 mM potassium chloride (KCl), 2.2 mM calcium chloride (CaCl2), 120 mM sodium chloride (NaCl) and 1 μM LX4211.
The compounds were diluted with 100% dimethyl sulfoxide (DMSO) at a starting concentration of 10 μM, 8 points of 5-fold serial gradient dilution was made.
6 μM [^14C]-labeled methyl α-D-glucopyranoside was prepared with experimental buffer.
Cells were treated with 49 μL of experimental buffer, 1 μL of gradient-diluted compound, and 50 μL of 6 μM [^14C]-isotope-labeled glucose solution at 37° C. for 2 hours.
The liquid in the wells was aspirated and the cells were washed 3 times with termination buffer.
The cells were lysed with 50 μL of 10% sodium hydroxide solution, and the cell lysate was aspirated into a scintillation tube, and 2 mL of scintillation solution was added.
Readings were taken with an isotope detector (Tricarb).
The data were calculated by GraphPad Prism 5.0 software using the formula: log (inhibitor) vs. response—Variable slope to obtain the IC50 values of the tested compounds, and the experimental results are shown in Table 5.

SD Rat = experiment: Oral glucose tolerance (OGTT) in rats; type: in vivo; details: male SD rats, single gavage dose, Canagliflozin 3 mg/kg, test compound 10 mg/kg
Description: The animals will be acclimatized in the animal room for 1 week after arrival at the facility.
The animals are fasted for 16 hours in the metabolic cage and given the drug or solvent (5 mL/kg) according to the table above, followed immediately by 50% glucose solution (2 g/kg, 4 mL/kg).
After 1 hour of glucose administration, the animals resumed feeding, and blood samples were collected at 0 min, 20 min, 40 min, 60 min, 90 min and 120 min for blood glucose measurement; urine at 0 to 24 hours was used for urinary glucose (mg/200 g) and urine volume test, respectively.
All values were expressed as mean values. Statistical analysis was performed using Graphpad Prism 6 single factor analysis of variance Tukey's multiple comparison test. The p-value less than 0.05 was considered statistically significant.

IC50 (Human-SGLT2)	Structure (SMILES)	OGTT blood glucose levels AUC0-2hr (SD Rat; glucose 2 g/kg)	Urinary glucose level (SD Rat; urine 0 to 24 hours)	Urine volume (SD Rat; urine 0 to 24 hours)
21.8 nM	CS[C@H]1O[C@@H](c2ccc(F)c(Cc3ccc(O[C@@H]4CCN([C@H]5CO[C@H](c6cc(F)ccc6F)[C@@H](N)C5)C4)cc3)c2)[C@H](O)[C@@H](O)[C@@H]1O [WX001]	869 mmol/L/min	0.7 mg/200 gBW	10.6 mL/200 gBW
7.02 nM	CS[C@H]1O[C@@H](c2cc(Cc3ccc(O[C@@H]4CCN([C@H]5CO[C@H](c6cc(F)ccc6F)[C@@H](N)C5)C4)cc3)c(F)cc2F)[C@H](O)[C@@H](O)[C@@H]1O [WX006]			
